Data reported in patent publication US8530181B2, “Method of screening for compounds which affect the cleavage of EphA7 byγ-secretase” (Eisai R&D Management Co., Ltd., priority 2007, dated 2013).

Biological target: T1, γ-secretase (Homo sapiens, UniProt P49768)
T1 construct: 293/EBNA-1 cell strain (Invitrogen) was cultured in 10% FBS (Hyclone)/DMEM (Invitrogen); host or cells: 293/EBNA-1 (HEK293) cells; only the substrate rat EphA7-HA was transfected
Assay: Analysis of EphA7 processing in EphA7-transfected 293/EBNA-1 cell strain (Western blotting with anti-HA antibody)
Format: cell-based
Set-up: dose or concentration left out as unconfirmed
Conditions: HEK293 (293/EBNA-1) cells expressing rat EphA7-HA; Compound E added to culture broth, cultured one day; compared with cells without Compound E
Method: Whether or not EphA7 is a substrate for γ-secretase was evaluated using HEK293 cells expressing a gene encoding EphA7 with an HA tag added to its C-terminus, in the presence of a γ-secretase inhibitor. As the γ-secretase inhibitor, (2S)-2-{[(3,5-difluorophenyl)acetyl]amino}-N-[(3S)-1-methyl-2-oxo-5-phenyl-2,3-dihydro-1H-1,4-benzodiazepin-3-yl]propanamide (hereinafter, sometimes referred to as “Compound E”) (Alexis Biochemicals) was used.
293/EBNA-1 cell strain (Invitrogen) was cultured in 10% FBS (Hyclone)/DMEM (Invitrogen) under 5% CO2 at 37° C., followed by transfection thereinto of the gene encoding rat EphA7 with an HA tag added to its C-terminus using Lipofectamine 2000 (Invitrogen). After one day culture under the same conditions, […] Compound E (γ-secretase inhibitor; Alexis Biochemicals) was added to the culture broth. Cells were cultured for another day under the same conditions. Then, the transfected HEK293 cells were collected with PBS (Sigma) and sonicated with a sonicator (Taitec VP-5S) to disrupt cells. Then, the quantity of protein was determined with Protein Assay Kit (BioRad). […]
First, the substrate for γ-secretase is cut off its extracellular domain by other protease. […] Since reactions proceed very quickly from the first cleavage to the final degradation by proteasome, the substrate is […] when detected by Western blotting.

C[C@H](NC(=O)Cc1cc(F)cc(F)c1)C(=O)N[C@H]1N=C(c2ccccc2)c2ccccc2N(C)C1=O [Compound E, (2S)-2-{[(3,5-difluorophenyl)acetyl]amino}-N-[(3S)-1-methyl-2-oxo-5-phenyl-2,3-dihydro-1H-1,4-benzodiazepin-3-yl]propanamide]
Accumulation of EphA7 C-terminal fragment (CTF, band around 50 kDa) on Western blot, indicating inhibited cleavage of EphA7 by γ-secretase: CTF was accumulated
